Reference: PMC12404492, “The crystal structure of Thermus thermophilus UMP kinase complexed with a phosphoryl group acceptor and donor” (PLOS One, 2025)

Target: T1, ttUMPK (UMP kinase of Thermus thermophilus HB8) (Thermus thermophilus, UniProt P43891)
T1 construct: gene pyrH; full-length gene in pET-11a (NdeI/BamHI), no tag mentioned; expressed in E. coli BL21(DE3), heat-treated; homohexamer by size exclusion
Test: X-ray crystal structure, […] Å (second data set, PDB code not given)
Assay type: binding
Details: active site, most chains

T1 sequence (P43891 whole entry): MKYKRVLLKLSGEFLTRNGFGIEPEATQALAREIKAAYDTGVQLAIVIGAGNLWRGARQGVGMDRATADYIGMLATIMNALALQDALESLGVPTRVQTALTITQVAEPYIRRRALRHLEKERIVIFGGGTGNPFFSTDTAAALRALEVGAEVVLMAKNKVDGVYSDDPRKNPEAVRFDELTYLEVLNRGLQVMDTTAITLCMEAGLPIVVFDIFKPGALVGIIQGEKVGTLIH

O=c1ccn([C@@H]2O[C@H](COP(=O)(O)O)[C@@H](O)[C@H]2O)c(=O)[nH]1 [UMP]
X-ray crystal structure, 2.5 Å (second data set, PDB code not given): most of the bound uridine nucleotides in the active site are UMP, not UDP
